Entries after “also recorded” stand apart in the source; their conditions may differ. Like-named read-outs stand apart in the source and are kept apart here.

The values that follow come from patent US7417034B2, “Pharmaceutically active uridine esters” (Trommsdorff GmbH & Co. KG Arzeneimittel, priority 2001, dated 2008).

The subject of data set [1] is permanent MCA occlusion in NMRI mice. The settings on record: for effect on infarct area (in words): versus controls; for infarct area, Mean: evaluated 2 days after, vehicle only 29.89. Here is the method: The neuroprotective effects of α-lipoic acid and more pronounced of dihydrolipoic acid are well known (P. Wolz, J. Krieglstein, Lipoic Acid in Health and Disease, New York, Basel, Hong Kong, Marcel Dekker Inc., 1997, pp. 205-225). Thus, dihydrolipoic acid was chosen as a positive control for comparison reasons.
Permanent middle cerebral artery (MCA) occlusion was performed in male NMRI mice (12 to 17 animals per group) according to the method described by Welsh et al. (J. Neurochem. 1987, 846-851). Briefly, after the mice were anesthetized with tribromoethanol (600 mg/kg intraperitoneally), a small hole was drilled in the skull to expose the middle cerebral artery. The stem of the middle cerebral artery and both branches were permanently occluded by electrocoagulation. Body temperature was maintained at 37° C.±1° C. with a heating lamp during the surgical procedure. Afterwards, the mice were kept at an environmental temperature of 30° C. for 2 hours after MCA occlusion.
For histologic evaluation, the mice were anesthetized again with tribromoethanol and perfused intraperitoneally with a 1.5% solution of neutral red (0.5 ml) 2 days after middle cerebral artery occlusion. The brains were removed and stored in a fixative (4% formalin in phosphate buffer solution, pH 7.4) for 24 hours.
The tissue on the brain surface unstained by neutral red was determined (in square millimeters) as infarcted surface area by means of an image analyzing system (Kontron, Eching, Germany) according to the publication of C. Backhauβ.
The injection of compound 5′, dihydrolipoic acid, and the vehicle only was performed intraperitoneally 1 hour before MCA occlusion. Compound 5′ and dihydrolipoic acid were dissolved in 25% macrogol 400 (vehicle). The injected volume was always 0.25-0.30 ml per mouse. Doses of 100, 150, and 500 mg/kg compound 5′ and 150 mg/kg dihydrolipoic acid were used. The control group received the vehicle (0.25-0.30 ml 25% macrogol 400 per mouse) only.
The differences between compound 5′-treated, dihydrolipoic acid-treated, and vehicle-treated animals were evaluated statistically according to the ANOVA and DUNCAN test.

For data set [2], the system named is dopamine and DOPAC concentration in the Striatum. In words: Dopamine and DOPAC concentration in rat Striatum, sodium malonate neurotoxicity model. It counts as in vivo, Wistar rats. An excerpt: (§1) This example was selected to determine the effect of the compounds of the present invention on the concentration of dopamine its metabolite 3,4-dihydroxyphenyl acetic acid (DOPAC) and 5-hydroxytryptamine (5-HT or Serotonin) and its metabolite 5-hydroxyindol acetic acid (5-HIAA) in the substantia nigra and the Striatum of Wistar rats (Charles River, Sulzbach Rosenberg).
(§2) Said two brain regions were selected in order to examine dopaminergic neurons, because it is well known that said neurons are sensitive to neurotoxines which may cause M. Parkinson, Alzheimer, and Chorea Huntington. The method as described below was used to determine degenerative processes. Sodium malonate was used as a neurotoxic substance within said method.
It is known that sodium malonate increases the release von dopamine in the Striatum of the test animals. Groups of six Wistar rats each have been used as test animals. Thus, the dopamine concentration can be used as an indicator in order to determine the harmful effect of neurotoxines.
100 mg of compound 5′ were dissolved in 5 ml 50% propan-1,2-diol (Merck, Darmstadt). Four 5 ml portions of compound 5′ were administered intraperitoneal to the test animals. The first portion was administered in the evening of the first test day, the second portion during the next morning, the third portion in the evening of the second test day and the late portion during the morning of the third test day. Thirty minutes after the last application of compound 5′ 2 μmol sodium malonate dissolved in physiologic sodium chloride solution were injected into the left Striatum by means of a precision pump (flow rate 0.5 μl/min.) after having anesthetized the rats (Ketamin: 80 mg/kg and Xylasin: 6-10 mg/kg).
(§3) Four days after sodium malonate application, the Striatum and the treated and untreated part of the substantia nigra was separately excised, weighted, homogenized with perchloric acid, and centrifuged. Aliquots of the supernatants were subsequently subjected to HPLC and by the means of HPLC-ELCD the amount of dopamine, DOPAC, 5-HT, 5-HIM, and 3-methoxytyramine was […] measured.

In data set [3] the test system is 5-HT and 5-HIAA level in substantia nigra. Description: 5-HT and 5-HIAA level in rat substantia nigra. Format: in vivo, Wistar rats. The settings on record: four i.p. portions.
Description: as §1, §2
100 mg of compound 5′ were dissolved in 5 ml 50% propan-1,2-diol (Merck, Darmstadt). Four 5 ml portions of compound 5′ were administered intraperitoneal to the test animals. […]
as §3

Data set [4] relates to hippocampal pyramid cells. In words: in-vitro Hippocampus cuts: glucose-induced over-sensitiveness of pyramid cells (population spike). It counts as cell-based, rats. The settings on record: 30 mM glucose; for IC50: amplitude of population spike, read-out: calculated IC50-value, reduction of glucose-induced over-sensitiveness; for concentration range of activity: population spike. The text has this: The model used to determine the effect of the compounds of the present invention on treating diabetes and/or polyneuropathy comprises the use of in-vitro Hippocampus cuts for detecting the over-sensitiveness of pyramid cells due to the enhancement of the glucose concentration. Said over-sensitiveness could be antagonized dose-dependent by the use of a compound of the general formula (I).
The Hippocampus cuts of rats present a validated model for determination of interaction between a drug substance which is in direct contact with neuronal tissue. The interaction between a pharmaceutically active compound and the brain tissue can be examined directly, because of the maintenance of the three dimensional structure of the tissue within the in-vitro Hippocampus cut. Said compounds act on a special population of nerve cells, the pyramid cells of the Hippocampus. It is known that the synapse between pyramid cells and Schaffer-collaterals (which can be electrically stimulated) use the neurotransmitter glutamate for the process of signal transduction. The result of the electric stimulation, the so called population spike, represents the amount of activated pyramid cells. Other known models allow the in-vitro determination of a neuronal network only within a time frame of up to 8 hours. The advantage of this model is that neuronal network can be analyzed in-vitro over a much longer period after chemical or electric provocation of the cells. The cells are brought to an elevated level of stimulation which allows a long term measurement of pharmacologically active compounds under patho-physiologic conditions (W. Dimpfel et al., Antimicrobial Agents and Chemotherapy 1991, 1142-1146; W. Dimpfel et al., Eur. J. Med. Res. 1996, 1, 523-527).
Within the present method the level of stimulation was elevated by the use of an increased concentration of glucose in the superfusion medium in order to measure the antagonistic effect of the compounds of the present invention. Because of the fact that α-lipoic acid had been applied to this method (W. Dimpfel et al., Eur. J. Med. Res. 1996, 1, 523-527), compound 5′ was selected as a close related compound in order to produce reasonable results when comparing α-lipoic acid and uridine with compound 5′. Thus, α-lipoic acid and uridine were selected as reference.
21 adult male CD rats had been used within the present studies. The Hippocampus was isolated after anesthetization and exsanguination of the test animals. The middle part of the Hippocampus was fixed by means of a glue in phosphate-buffered saline (NaCl: 124 mM, KCl: 5 mM, CaCl2: 2 mM, MgSO4: 2 mM, NaH2PO4: 1.25 mM, NaHCO3: 26 mM, glucose: 10 mM; control solution: ACSF; Carl Roth, Karlsruhe, Germany). The Hippocampus was subsequent cut into slides of […] by means of a Vibratom (Rhema Labortechnik). The Hippocampus cuts were stored at least one hour before the test runs in an incubation chamber under carbogen (S. J. Schiff, G. G. Somjen, Brain Research 1985, 345, 279-284).
The experiment was carried out in a so called “Base Unit with Haas Top” (Medical Systems Corporation, U.S.A.) at a temperature of 35° C. according to the protocol of H. L. Haas and R. W. Greene (Neurotransmitter and cortical function; ed. M. Avoli, T. A. Reader, R. W. Dykes and P. Gloor, pp. 483-494, Plenum Publishing Corp.). The Hippocampus cut was placed on a piece of gauze and perfused by means of peristaltic pumps. The test apparatus was flushed with carbogen (flow rate: 200 ml per hour) in order to maintain the necessary oxygen supply.
The CA2-region was stimulated by means of a stimulus generator (laboratory computer, Pro Science) and a bipolar concentric steel electrode (Rhodes Medical Systems, U.S.A.). A pulse width of 200 μs was used and the amperage was constantly kept at 200 μA. The stimulus generator released four single stimulation signals within intervals of 20 seconds which released a total number of four population spikes in the Hippocampus cut. […]

[5] abbreviates: 150 mg/kg intraperitoneally 1 hour before MCA occlusion.
Where [6] appears, read: compound alone, four i.p. portions, p<0.05.
[7] abbreviates: 2 μmol sodium malonate injected into left Striatum, four days after, p<0.001.

Take `O=C(O)CCCC[C@@H](S)CCS` (racemic) [dihydrolipoic acid, reference compound]: the “effect on infarct area (in words)” value in data set [1] (150 mg/kg i.p.) is reported as “no effect at all”. Also, the “infarct area, Mean” value in data set [1] (setting [5]) is given as 27.94 square millimeters.

What is called IC50 is the concentration needed to halve the response being measured. Consider `O=C(CCCCC(S)CCS)OC[C@H]1O[C@@H](n2ccc(=O)[nH]c2=O)[C@H](O)[C@@H]1O` (stereo partly drawn) [Compound 5′, (2′R,3′S,4′R,5′R)-6,8-Dimercapto-octanoic acid 5′-(2,4-dioxo-3,4-dihydro-2H-pyrimidine-1-yl)-3′,4′-dihydroxy-tetrahydrofuran-2′-ylmethyl ester], for which the “infarct area, Mean” value in data set [1] (100 mg/kg intraperitoneally 1 hour before MCA occlusion) is given as 26.22 square millimeters. In data set [1] (setting [5]), the “infarct area, Mean” value is 27.00 square millimeters. For the same compound, the “effect on infarct area (in words)” value in data set [1] (500 mg/kg i.p.) is on record as “no longer statistically reduced; also recorded: only a slight neuroprotective effect”. In data set [1] (500 mg/kg intraperitoneally 1 hour before MCA occlusion), the “infarct area, Mean” value is listed as 28.24 square millimeters. The “effect on infarcted area (in words)” value in data set [1] (lowest dose, 100 mg (100 mg/kg) i.p., versus vehicle) is “significantly reduced the infarcted area; also recorded: most pronounced”. The “toxic effects in mice” value in data set [1] (mice of the MCA occlusion study, 100-500 mg/kg i.p.) is recorded as “no toxic effects could be detected”. Also, in data set [2] (FIG. 4, relatively low concentrations), the “compensation of malonate-induced dopamine depletion in rat striatum (in words)” value is on record as “can almost be compensated”. In addition, in data set [2] (setting [6]), the “change of the concentration of DOPAC in the Striatum” value is “+10%” and the “change of the concentration of dopamine in the Striatum” value was “+18%”. Besides, the “more dopamine in comparison to the application of malonate only” value in data set [2] (compound i.p. together with 2 μmol sodium malonate into left Striatum) was “+44%”. Moreover, the “5-HT concentration in rat substantia nigra (in words)” value in data set [3] (FIG. 5a) is reported as “significantly increase; also recorded: increased dramatically”. Further, the “5-HIAA level in rat substantia nigra (in words)” value in data set [3] (FIG. 5b) is “significantly increase; also recorded: increased dramatically”. Also, in data set [4] (rat Hippocampus cuts), the “reduction of the elevated stimulation level / over-sensitiveness (in words)” value was “able to reduce dose-dependent the elevated stimulation level; also recorded: most effectively treated; also recorded: able to significantly reduce the increased over-sensitiveness”, the IC50 was 5 µM and the “concentration range of activity” value lay in the range of 1 to 25 µM.

For `O=C(CCCC[C@@H]1CCSS1)OC[C@H]1O[C@@H](n2ccc(=O)[nH]c2=O)[C@H](O)[C@@H]1O` [Compound R-5, (2′R,3R,3′S,4′R,5′R)-5-[1,2]Dithiolan-3-yl-pentanoic acid 5′-(2,4-dioxo-3,4-dihydro-2H-pyrimidine-1-yl)-3′,4′-dihydroxy-tetrahydrofuran-2′-ylmethyl ester], in data set [4] (rat Hippocampus cuts), the IC50 is 8 µM and the “concentration range of activity” value was in the range of 1 to 15 µM.

Turning to `O=C(CCCC[C@H]1CCSS1)OC[C@H]1O[C@@H](n2ccc(=O)[nH]c2=O)[C@H](O)[C@@H]1O` [Compound S-5, (2′R,3S,3′S,4′R,5′R)-5-[1,2]Dithiolan-3-yl-pentanoic acid 5′-(2,4-dioxo-3,4-dihydro-2H-pyrimidine-1-yl)-3′,4′-dihydroxy-tetrahydrofuran-2′-ylmethyl ester], in data set [4] (rat Hippocampus cuts), the IC50 was 4 µM and the “concentration range of activity” value was in the range of 1 to 10 µM.

Take `O=C([O-])CC(=O)[O-].[Na+].[Na+]` [malonate, sodium malonate, reference compound]: in data set [2] (setting [7]), the “change of the concentration of DOPAC” value is on record as −30% and the “change of the concentration of dopamine” value was −44%.

Take `O=c1ccn([C@@H]2O[C@H](CO)[C@@H](O)[C@H]2O)c(=O)[nH]1` [uridine]: the IC50 in data set [4] (Rattus norvegicus) is 40 µM. For the same compound, the “reduction of the elevated stimulation level / over-sensitiveness (in words)” value in data set [4] (rat Hippocampus cuts) is “able to reduce dose-dependent the elevated stimulation level; also recorded: only weaker effects; also recorded: much weaker effects”.

Turning to `O=C(O)CCCCC1CCSS1` (stereo not drawn) [α-lipoic acid, reference compound], in data set [4] (rat Hippocampus cuts), the “reduction of the elevated stimulation level / over-sensitiveness (in words)” value is “able to reduce dose-dependent the elevated stimulation level; also recorded: only weaker effects; also recorded: much weaker effects”, the IC50 was approximately 200 µM and the “concentration range of activity” value is not above 400 µM.
